Species: Rattus norvegicus
Test: DrugMatrix - Regimen: Daily Repeat
Type: toxicity, organism-based, Sprague-Dawley
Design: regimen Daily Repeat, gender Male, age 6-8 weeks
Conditions: in vivo, sc, route subcutaneous, […]; for ABSOLUTE BASOPHIL / ABSOLUTE EOSINOPHIL / ABSOLUTE LYMPHOCYTE / ABSOLUTE MONOCYTE / ABSOLUTE SEGMENTED NEUTROPHIL / BASOPHIL / EOSINOPHIL / ERYTHROCYTE COUNT / HEMATOCRIT / HEMOGLOBIN / LEUKOCYTE COUNT / LYMPHOCYTE / MEAN CORPUSCULAR HEMOGLOBIN / MEAN CORPUSCULAR HEMOGLOBIN CONCENTRATION / MEAN CORPUSCULAR VOLUME / MONOCYTE / NEUTROPHIL / NUCLEATED RED BLOOD CELLS / PLATELET COUNT: tissue Blood; for ALANINE AMINOTRANSFERASE / ALBUMIN / ALKALINE PHOSPHATASE / ASPARTATE AMINOTRANSFERASE / BLOOD UREA NITROGEN / CARBON DIOXIDE / CHLORIDE / CHOLESTEROL / CREATINE PHOSPHOKINASE / CREATININE / GLUCOSE / LACTATE DEHYDROGENASE / LIPASE / PHOSPHORUS / POTASSIUM / SODIUM / TOTAL BILIRUBIN / TOTAL PROTEIN / URIC ACID: tissue Plasma
[1] = 0 mg/kg, 72 h, dose level Control, time 3 day
[2] = 0 mg/kg, 120 h, dose level Control, time 5 day
[3] = 56 mg/kg, 72 h, dose level M1, time 3 day

In the case of `O=C(Nc1ccc(Br)cc1)c1cc(Br)cc(Br)c1O` [TRIBROMSALAN], the “ABSOLUTE BASOPHIL” value [1] is reported as 0 CELLS/uL, the “ABSOLUTE EOSINOPHIL” value [1] is reported as 42.67 CELLS/uL and the “ABSOLUTE LYMPHOCYTE” value [1] is reported as 10202 CELLS/uL. For the same compound, the “ABSOLUTE MONOCYTE” value [1] was 261.5 CELLS/uL, the “ABSOLUTE SEGMENTED NEUTROPHIL” value [1] was 2193.83 CELLS/uL and the BASOPHIL [1] was 0%. The EOSINOPHIL [1] was 0.33%, the “ERYTHROCYTE COUNT” value [1] was 5.63 x10E6/uL and the HEMATOCRIT [1] was 35.35%. The HEMOGLOBIN [1] was 13.07 G/DL, the “LEUKOCYTE COUNT” value [1] was 12.7 x10E3/uL and the LYMPHOCYTE [1] was 81.17%. For the same compound, the “MEAN CORPUSCULAR HEMOGLOBIN” value [1] was 23.23 pg, the “MEAN CORPUSCULAR HEMOGLOBIN CONCENTRATION” value [1] was 36.97 G/DL and the “MEAN CORPUSCULAR VOLUME” value [1] was 62.82 fL. For the same compound, the MONOCYTE [1] was 2%, the NEUTROPHIL [1] was 16.5% and the “NUCLEATED RED BLOOD CELLS” value [1] was 0 /100WBC. For the same compound, the “PLATELET COUNT” value [1] was 1180.33 x10E3/uL, the “ALANINE AMINOTRANSFERASE” value [1] was 48.67 u/L and the ALBUMIN [1] was 4.08 G/DL. For the same compound, the “ALKALINE PHOSPHATASE” value [1] was 360.67 u/L, the “ASPARTATE AMINOTRANSFERASE” value [1] was 85.5 u/L and the “BLOOD UREA NITROGEN” value [1] was 17.83 mg/dL. The “CARBON DIOXIDE” value [1] was 26.17 mmol/L, the CHLORIDE [1] was 101.83 MEQ/L and the CHOLESTEROL [1] was 71 mg/dL. For the same compound, the “CREATINE PHOSPHOKINASE” value [1] was 515.17 u/L, the CREATININE [1] was 0.22 mg/dL and the GLUCOSE [1] was 192.5 mg/dL. The “LACTATE DEHYDROGENASE” value [1] was 214.67 u/L, the LIPASE [1] was 8.5 u/L and the PHOSPHORUS [1] was 12.95 mg/dL. The POTASSIUM [1] was 6.39 MEQ/L, the SODIUM [1] was 142.38 MEQ/L and the “TOTAL BILIRUBIN” value [1] was 0.18 mg/dL. For the same compound, the “TOTAL PROTEIN” value [1] was 5.95 G/DL, the “URIC ACID” value [1] was 1.83 mg/dL and the “ABSOLUTE BASOPHIL” value [2] was 0 CELLS/uL. The “ABSOLUTE EOSINOPHIL” value [2] was 188.5 CELLS/uL, the “ABSOLUTE LYMPHOCYTE” value [2] was 12360.83 CELLS/uL and the “ABSOLUTE MONOCYTE” value [2] was 64.33 CELLS/uL. The “ABSOLUTE SEGMENTED NEUTROPHIL” value [2] was 1986.33 CELLS/uL, the BASOPHIL [2] was 0% and the EOSINOPHIL [2] was 1.33%. For the same compound, the “ERYTHROCYTE COUNT” value [2] was 5.52 x10E6/uL, the HEMATOCRIT [2] was 35.82% and the HEMOGLOBIN [2] was 13.25 G/DL. For the same compound, the “LEUKOCYTE COUNT” value [2] was 14.6 x10E3/uL, the LYMPHOCYTE [2] was 84.5% and the “MEAN CORPUSCULAR HEMOGLOBIN” value [2] was 24.05 pg. The “MEAN CORPUSCULAR HEMOGLOBIN CONCENTRATION” value [2] was 36.98 G/DL, the “MEAN CORPUSCULAR VOLUME” value [2] was 64.97 fL and the MONOCYTE [2] was 0.5%. The NEUTROPHIL [2] was 13.67%, the “NUCLEATED RED BLOOD CELLS” value [2] was 0 /100WBC and the “PLATELET COUNT” value [2] was 1297.83 x10E3/uL. For the same compound, the “ALANINE AMINOTRANSFERASE” value [2] was 51.17 u/L, the ALBUMIN [2] was 4.08 G/DL and the “ALKALINE PHOSPHATASE” value [2] was 393.17 u/L. The “ASPARTATE AMINOTRANSFERASE” value [2] was 111 u/L, the “BLOOD UREA NITROGEN” value [2] was 18.17 mg/dL and the “CARBON DIOXIDE” value [2] was 25 mmol/L. The CHLORIDE [2] was 105.17 MEQ/L, the CHOLESTEROL [2] was 65.5 mg/dL and the “CREATINE PHOSPHOKINASE” value [2] was 911.5 u/L. The CREATININE [2] was 0.21 mg/dL, the GLUCOSE [2] was 183 mg/dL and the “LACTATE DEHYDROGENASE” value [2] was 189 u/L. For the same compound, the LIPASE [2] was 8.33 u/L, the PHOSPHORUS [2] was 12.78 mg/dL and the POTASSIUM [2] was 6.05 MEQ/L. For the same compound, the SODIUM [2] was 144.57 MEQ/L, the “TOTAL BILIRUBIN” value [2] was 0.25 mg/dL and the “TOTAL PROTEIN” value [2] was 5.83 G/DL. For the same compound, the “URIC ACID” value [2] was 1.58 mg/dL, the “ABSOLUTE BASOPHIL” value [3] was 0 CELLS/uL and the “ABSOLUTE EOSINOPHIL” value [3] was 245 CELLS/uL. For the same compound, the “ABSOLUTE LYMPHOCYTE” value [3] was 12670.67 CELLS/uL, the “ABSOLUTE MONOCYTE” value [3] was 0 CELLS/uL and the “ABSOLUTE SEGMENTED NEUTROPHIL” value [3] was 1651 CELLS/uL. The BASOPHIL [3] was 0%, the EOSINOPHIL [3] was 1.67% and the “ERYTHROCYTE COUNT” value [3] was 5.81 x10E6/uL. For the same compound, the HEMATOCRIT [3] was 35.97%, the HEMOGLOBIN [3] was 13.47 G/DL and the “LEUKOCYTE COUNT” value [3] was 14.57 x10E3/uL. The LYMPHOCYTE [3] was 87.33%, the “MEAN CORPUSCULAR HEMOGLOBIN” value [3] was 23.27 pg and the “MEAN CORPUSCULAR HEMOGLOBIN CONCENTRATION” value [3] was 37.43 G/DL. The “MEAN CORPUSCULAR VOLUME” value [3] was 62.03 fL, the MONOCYTE [3] was 0% and the NEUTROPHIL [3] was 11%. For the same compound, the “NUCLEATED RED BLOOD CELLS” value [3] was 0 /100WBC, the “PLATELET COUNT” value [3] was 1364.67 x10E3/uL and the “ALANINE AMINOTRANSFERASE” value [3] was 47.67 u/L. For the same compound, the ALBUMIN [3] was 4.2 G/DL, the “ALKALINE PHOSPHATASE” value [3] was 292.33 u/L and the “ASPARTATE AMINOTRANSFERASE” value [3] was 78.67 u/L. For the same compound, the “BLOOD UREA NITROGEN” value [3] was 14.67 mg/dL, the “CARBON DIOXIDE” value [3] was 25 mmol/L and the CHLORIDE [3] was 102.33 MEQ/L. The CHOLESTEROL [3] was 80.67 mg/dL, the “CREATINE PHOSPHOKINASE” value [3] was 290.33 u/L and the CREATININE [3] was 0.19 mg/dL. For the same compound, the GLUCOSE [3] was 173.67 mg/dL, the “LACTATE DEHYDROGENASE” value [3] was 127.33 u/L and the LIPASE [3] was 8.33 u/L. The PHOSPHORUS [3] was 12.7 mg/dL, the POTASSIUM [3] was 5.88 MEQ/L and the SODIUM [3] was 145.47 MEQ/L. The “TOTAL BILIRUBIN” value [3] was 0.2 mg/dL, the “TOTAL PROTEIN” value [3] was 6.23 G/DL and the “URIC ACID” value [3] was 1.67 mg/dL.

Reference: ChEMBL document CHEMBL3885881, “DrugMatrix”
